Tests used:
[1] = tested on: HepG2; experiment: Cytotoxicity against human HepG2 cells assessed as cell survival after 48 hrs by SRB assay; format: functional, cell-based; settings: HepG2, 48 h
[2] = tested on: Pseudomonas aeruginosa; experiment: Antibacterial activity against Pseudomonas aeruginosa ATCC 10145 assessed as growth inhibition after 24 to 48 hrs by kirby-bauer disc diffusion method; format: functional; note: test concentration or dose not given here
[3] = tested on: Escherichia coli; experiment: Antibacterial activity against Escherichia coli ATCC 11775 assessed as growth inhibition after 24 to 48 hrs by kirby-bauer disc diffusion method; format: functional, DSM 30083 = JCM 1649; note: test concentration or dose not given here
[4] = tested on: Staphylococcus aureus; experiment: Antibacterial activity against Staphylococcus aureus ATCC 12600 assessed as growth inhibition after 24 to 48 hrs by kirby-bauer disc diffusion method; format: functional; note: test concentration or dose not given here
[5] = tested on: Bacillus subtilis; experiment: Antibacterial activity against Bacillus subtilis ATCC 6051 assessed as growth inhibition after 24 to 48 hrs by kirby-bauer disc diffusion method; format: functional; note: test concentration or dose not given here
[6] = tested on: MCF7; experiment: Cytotoxicity against human MCF7 cells assessed as cell survival after 48 hrs by SRB assay; format: functional, cell-based; settings: MCF7, 48 h
[7] = tested on: Pseudomonas aeruginosa; experiment: Antibacterial activity against Pseudomonas aeruginosa ATCC 10145 assessed as growth inhibition by broth microdilution method; format: functional
[8] = tested on: Staphylococcus aureus; experiment: Antibacterial activity against Staphylococcus aureus ATCC 12600 assessed as growth inhibition by broth microdilution method; format: functional

SMILES: COc1cc(-c2nc3sc4c(c3c(=O)n2-c2nc3cc(C)ccc3s2)CCCC4)cc(OC)c1OC
- IC50 [1]: > 192 µM
- diameter of the inhibition zone (DIZ) [2]: 12 mm
- diameter of the inhibition zone (DIZ) [3]: 12 mm
- diameter of the inhibition zone (DIZ) [4]: 14 mm
- diameter of the inhibition zone (DIZ) [5]: 11 mm
- IC50 [6]: 65.6 µM

SMILES: COc1cc(-c2nc3sc4c(c3c(=O)n2C(N)=S)CCCC4)cc(OC)c1OC
- IC50 [1]: > 232 µM
- diameter of the inhibition zone (DIZ) [2]: 13 mm
- diameter of the inhibition zone (DIZ) [3]: 14 mm
- diameter of the inhibition zone (DIZ) [4]: 12 mm
- diameter of the inhibition zone (DIZ) [5]: 12 mm
- IC50 [6]: 77.6 µM

SMILES: COc1cc(-c2nc3sc4c(c3c(=O)n2C(N)=O)CCCC4)cc(OC)c1OC
- IC50 [1]: 25.8 µM
- diameter of the inhibition zone (DIZ) [2]: 17 mm
- diameter of the inhibition zone (DIZ) [3]: 16 mm
- diameter of the inhibition zone (DIZ) [4]: 16 mm
- diameter of the inhibition zone (DIZ) [5]: 16 mm
- IC50 [6]: 26.2 µM

SMILES: COc1cc(-c2nc3sc4c(c3c(=O)n2C(=O)NO)CCCC4)cc(OC)c1OC
- IC50 [1]: 14.4 µM
- diameter of the inhibition zone (DIZ) [2]: 13 mm
- diameter of the inhibition zone (DIZ) [3]: 14 mm
- diameter of the inhibition zone (DIZ) [4]: 12 mm
- diameter of the inhibition zone (DIZ) [5]: 13 mm
- IC50 [6]: 71.2 µM

SMILES: COc1cc(-c2nc3sc4c(c3c(=O)n2-c2ccc(C(=O)O)cc2)CCCC4)cc(OC)c1OC
- IC50 [1]: 29.6 µM
- diameter of the inhibition zone (DIZ) [2]: 10 mm
- diameter of the inhibition zone (DIZ) [3]: 10 mm
- diameter of the inhibition zone (DIZ) [4]: 11 mm
- diameter of the inhibition zone (DIZ) [5]: 12 mm
- IC50 [6]: > 203 µM

SMILES: COc1cc(-c2nc3sc4c(c3c(=O)n2-c2ccc(S(N)(=O)=O)cc2)CCCC4)cc(OC)c1OC
- IC50 [1]: > 190 µM
- diameter of the inhibition zone (DIZ) [2]: 13 mm
- diameter of the inhibition zone (DIZ) [3]: 12 mm
- diameter of the inhibition zone (DIZ) [4]: 9 mm
- diameter of the inhibition zone (DIZ) [5]: 14 mm
- IC50 [6]: 37.1 µM

SMILES: COc1cc(-c2nc3sc4c(c3c(=O)n2C(Cc2ccccc2)C(=O)O)CCCC4)cc(OC)c1OC (centres undefined)
- IC50 [1]: 19.4 µM
- diameter of the inhibition zone (DIZ) [2]: 13 mm
- diameter of the inhibition zone (DIZ) [3]: 13 mm
- diameter of the inhibition zone (DIZ) [4]: 10 mm
- diameter of the inhibition zone (DIZ) [5]: 12 mm
- IC50 [6]: 50.1 µM

SMILES: COc1cc(-c2nc3sc4c(c3c(=O)n2C(Cc2cc3ccccc3[nH]2)C(=O)O)CCCC4)cc(OC)c1OC (centres undefined)
- IC50 [1]: 30.9 µM
- diameter of the inhibition zone (DIZ) [2]: 0 mm
- diameter of the inhibition zone (DIZ) [3]: 0 mm
- diameter of the inhibition zone (DIZ) [4]: 0 mm
- diameter of the inhibition zone (DIZ) [5]: 0 mm
- IC50 [6]: > 179 µM

SMILES: COc1cc(-c2nc3sc4c(c3c(=O)n2C2CONC2=O)CCCC4)cc(OC)c1OC (centres undefined)
- IC50 [1]: 24.9 µM
- diameter of the inhibition zone (DIZ) [2]: 14 mm
- diameter of the inhibition zone (DIZ) [3]: 17 mm
- diameter of the inhibition zone (DIZ) [4]: 15 mm
- diameter of the inhibition zone (DIZ) [5]: 15 mm
- IC50 [6]: 54.9 µM

SMILES: COc1cc(-c2nc3sc4c(c3c(=O)n2-c2cc(=O)[nH]c(=O)[nH]2)CCCC4)cc(OC)c1OC
- IC50 [1]: 86.4 µM
- diameter of the inhibition zone (DIZ) [2]: 14 mm
- diameter of the inhibition zone (DIZ) [3]: 14 mm
- diameter of the inhibition zone (DIZ) [4]: 11 mm
- diameter of the inhibition zone (DIZ) [5]: 11 mm
- IC50 [6]: 83.3 µM

SMILES: COc1cc(-c2nc3sc4c(c3c(=O)n2-c2nc3ccccc3s2)CCCC4)cc(OC)c1OC
- IC50 [1]: 5.14 µM
- diameter of the inhibition zone (DIZ) [2]: 15 mm
- diameter of the inhibition zone (DIZ) [3]: 15 mm
- diameter of the inhibition zone (DIZ) [4]: 14 mm
- diameter of the inhibition zone (DIZ) [5]: 13 mm
- IC50 [6]: 11.5 µM

SMILES: COc1cc(-c2nc3sc4c(c3c(=O)n2-c2nc3cc([N+](=O)[O-])ccc3s2)CCCC4)cc(OC)c1OC
- IC50 [1]: 36.9 µM
- diameter of the inhibition zone (DIZ) [2]: 14 mm
- diameter of the inhibition zone (DIZ) [3]: 15 mm
- diameter of the inhibition zone (DIZ) [4]: 15 mm
- diameter of the inhibition zone (DIZ) [5]: 14 mm
- IC50 [6]: 21.6 µM

SMILES: COc1cc(-c2nc3sc4c(c3c(=O)n2-c2ccc3c(C)c5ccc(N)cc5nc3c2)CCCC4)cc(OC)c1OC
- MIC [7]: 11 µg/mL
- MIC [8]: 8 µg/mL
- IC50 [1]: 5.5 µM
- diameter of the inhibition zone (DIZ) [2]: 25 mm
- diameter of the inhibition zone (DIZ) [3]: 22 mm
- diameter of the inhibition zone (DIZ) [4]: 26 mm
- diameter of the inhibition zone (DIZ) [5]: 23 mm
- IC50 [6]: 0.86 µM

SMILES: NC(=S)n1c(/C=C/c2ccccc2)nc2sc3c(c2c1=O)CCCC3
- IC50 [1]: 17.7 µM
- diameter of the inhibition zone (DIZ) [2]: 13 mm
- diameter of the inhibition zone (DIZ) [3]: 13 mm
- diameter of the inhibition zone (DIZ) [4]: 14 mm
- diameter of the inhibition zone (DIZ) [5]: 13 mm
- IC50 [6]: 10.6 µM

SMILES: NC(=O)n1c(/C=C/c2ccccc2)nc2sc3c(c2c1=O)CCCC3
- IC50 [1]: 18.5 µM
- diameter of the inhibition zone (DIZ) [2]: 15 mm
- diameter of the inhibition zone (DIZ) [3]: 14 mm
- diameter of the inhibition zone (DIZ) [4]: 16 mm
- diameter of the inhibition zone (DIZ) [5]: 14 mm
- IC50 [6]: 13.4 µM

SMILES: O=C(NO)n1c(/C=C/c2ccccc2)nc2sc3c(c2c1=O)CCCC3
- IC50 [1]: 52 µM
- diameter of the inhibition zone (DIZ) [2]: 14 mm
- diameter of the inhibition zone (DIZ) [3]: 13 mm
- diameter of the inhibition zone (DIZ) [4]: 15 mm
- diameter of the inhibition zone (DIZ) [5]: 12 mm
- IC50 [6]: 23.9 µM

SMILES: O=C(O)c1ccc(-n2c(/C=C/c3ccccc3)nc3sc4c(c3c2=O)CCCC4)cc1
- IC50 [1]: 36.9 µM
- diameter of the inhibition zone (DIZ) [2]: 14 mm
- diameter of the inhibition zone (DIZ) [3]: 16 mm
- diameter of the inhibition zone (DIZ) [4]: 19 mm
- diameter of the inhibition zone (DIZ) [5]: 14 mm
- IC50 [6]: 45.3 µM

SMILES: NS(=O)(=O)c1ccc(-n2c(/C=C/c3ccccc3)nc3sc4c(c3c2=O)CCCC4)cc1
- IC50 [1]: 1.29 µM
- diameter of the inhibition zone (DIZ) [2]: 15 mm
- diameter of the inhibition zone (DIZ) [3]: 15 mm
- diameter of the inhibition zone (DIZ) [4]: 14 mm
- diameter of the inhibition zone (DIZ) [5]: 14 mm
- IC50 [6]: 0.43 µM

SMILES: Cc1c2ccc(N)cc2nc2cc(-n3c(/C=C/c4ccccc4)nc4sc5c(c4c3=O)CCCC5)ccc12
- MIC [7]: 18 µg/mL
- MIC [8]: 13 µg/mL
- IC50 [1]: 5.82 µM
- diameter of the inhibition zone (DIZ) [2]: 21 mm
- diameter of the inhibition zone (DIZ) [3]: 21 mm
- diameter of the inhibition zone (DIZ) [4]: 24 mm
- diameter of the inhibition zone (DIZ) [5]: 20 mm
- IC50 [6]: 0.19 µM

SMILES: CC1(C)S[C@@H]2[C@H](NC(=O)[C@H](N)c3ccccc3)C(=O)N2[C@H]1C(=O)O [AMPICILLIN]
- MIC [7]: 56 µg/mL
- MIC [8]: 48 µg/mL
- diameter of the inhibition zone (DIZ) [2]: 17 mm
- diameter of the inhibition zone (DIZ) [3]: 22 mm
- diameter of the inhibition zone (DIZ) [4]: 18 mm
- diameter of the inhibition zone (DIZ) [5]: 20 mm

Source: ChEMBL document CHEMBL2401715, “Synthesis, antitumor and antibacterial activities of some novel tetrahydrobenzo[4,5]thieno[2,3-d]pyrimidine derivatives” (Eur J Med Chem, 2013)
